From patent US20100068184A1, “LIVING BODY HEALING ACCELERATOR” (AUREO CO., LTD., priority 2006, published 2010)

Tests used:
sarcoma = assay: Sarcoma-implanted mice: change in tumor volume; format: in vivo; details: 5-FU 20 mg/kg/day oral in drinking water (group A), vs control group
Description: The above result obviously indicates the characteristics of the treatment with an anticancer drug, and in this type of treatment, the anticancer drug can suppress growth of a tumor, but normal cells are damaged by toxicity of the anticancer drug. This negative aspect spoils the positive result of the treatment with an anticancer drug. […] The dose of 2 g/kg/day corresponds to 30 mg/kg/day in administration with respect to the solid content (1.5%).

[1] = test system: leukemia-originated tumor cell P388; assay: Anti-leukemia test (survival rate); format: in vivo, mice; details: group A, 5-FU 2.0 mg/kg oral, 40 days after implantation
Description: The test was carried out according to the ordinary method by using mice each with the leukemia-originated tumor cell P388 implanted therein and also by comparing survival rates of the mice after the test samples were administered. Just after the tumor was implanted, each test sample was orally administered by mixing the sample in water in a bottle for drinking water and making the mice freely drink the water. […] 10 mice were used for one test sample group.

[2] = test system: mouse carrying diabetes caused by streptozotocin; assay: Test for accelerating normalization of a blood glucose level; format: in vivo, mice; details: 200 mg/kg intraperitoneal (positive control group)
Description: The test was performed by using mice, in each of which a diabetes was induced by streptozotocin, and also by comparing blood glucose levels before and after administration of test samples. In Table 3, the “normal group” indicates a blood glucose level in the normal state where treatment with streptozotocin is not performed. On the other hand, the “negative control group” indicates a blood glucose level in a mouse in which diabetes was generated by being subjected to treatment with streptozotocin. The “positive control group” indicates a blood glucose level when tolbutamide which was an accelerator of insulin secretion (200 mg/kg) was administered to a mouse carrying diabetes caused by streptozotocin. The “test A group” and “test B group” each indicates a blood glucose level when each of the Aureobasidium culture solution (2 g/kg and 10 g/kg) was administered to a mouse carrying diabetes caused by streptozotocin. It is to be noted that each sample was intrapenitoreally administered.
FIG. 6 is plotted with the ordinate axis indicating a blood glucose level and with the abscissa axis indicating treatment performed to each group of the tested mice. A left bar in each group represents an average value of blood glucose levels before administration of the test sample, while a right bar represent an average value of blood glucose levels after administration of the test sample.

Structure (SMILES) | volume of the tumor (sarcoma) | survival rate [1] [%] | descent percentage of blood glucose level [2] [%]
O=c1[nH]cc(F)c(=O)[nH]1 [5-FU, 5-fluorouracil] | significantly restrained | 80 | 
CCCCNC(=O)NS(=O)(=O)c1ccc(C)cc1 [tolbutamide] |  |  | 17.4
